Reference: ChEMBL document CHEMBL1127341, “Synthesis and biological evaluation of 5-[[3,5-bis(1,1-dimethylethyl)- 4-hydroxyphenyl]methylene]oxazoles, -thiazoles, and -imidazoles: novel dual 5-lipoxygenase and cyclooxygenase inhibitors with antiinflammatory activity” (J Med Chem, 1994)
Activity calls are given as the source filed them. The rule behind the calls is not given here.

Tests used:
[1] = target: T1, Polyunsaturated fatty acid 5-lipoxygenase (Rattus norvegicus, UniProt P12527)
T1 sequence (P12527 whole entry): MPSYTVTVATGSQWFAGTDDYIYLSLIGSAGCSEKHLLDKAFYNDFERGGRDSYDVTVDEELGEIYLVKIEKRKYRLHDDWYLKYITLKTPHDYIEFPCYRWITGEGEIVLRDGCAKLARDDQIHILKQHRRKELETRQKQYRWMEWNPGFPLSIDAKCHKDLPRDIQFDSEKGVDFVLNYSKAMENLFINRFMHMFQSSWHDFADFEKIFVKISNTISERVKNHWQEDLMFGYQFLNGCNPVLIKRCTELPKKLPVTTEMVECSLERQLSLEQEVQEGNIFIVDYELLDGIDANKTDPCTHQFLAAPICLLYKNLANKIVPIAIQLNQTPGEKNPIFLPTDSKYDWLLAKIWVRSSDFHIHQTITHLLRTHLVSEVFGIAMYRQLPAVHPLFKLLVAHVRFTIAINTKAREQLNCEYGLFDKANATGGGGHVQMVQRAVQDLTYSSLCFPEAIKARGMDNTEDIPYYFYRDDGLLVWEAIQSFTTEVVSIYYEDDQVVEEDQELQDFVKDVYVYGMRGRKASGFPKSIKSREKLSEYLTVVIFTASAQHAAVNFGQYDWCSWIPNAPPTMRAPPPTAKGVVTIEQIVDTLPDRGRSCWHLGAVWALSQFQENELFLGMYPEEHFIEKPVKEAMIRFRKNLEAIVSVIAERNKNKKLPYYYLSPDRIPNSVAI

Cyclooxygenase = target: T2, Cyclooxygenase (Rattus norvegicus, UniProt P35355+Q63921); settings: rbl-1
T2 sequence (P35355 whole entry): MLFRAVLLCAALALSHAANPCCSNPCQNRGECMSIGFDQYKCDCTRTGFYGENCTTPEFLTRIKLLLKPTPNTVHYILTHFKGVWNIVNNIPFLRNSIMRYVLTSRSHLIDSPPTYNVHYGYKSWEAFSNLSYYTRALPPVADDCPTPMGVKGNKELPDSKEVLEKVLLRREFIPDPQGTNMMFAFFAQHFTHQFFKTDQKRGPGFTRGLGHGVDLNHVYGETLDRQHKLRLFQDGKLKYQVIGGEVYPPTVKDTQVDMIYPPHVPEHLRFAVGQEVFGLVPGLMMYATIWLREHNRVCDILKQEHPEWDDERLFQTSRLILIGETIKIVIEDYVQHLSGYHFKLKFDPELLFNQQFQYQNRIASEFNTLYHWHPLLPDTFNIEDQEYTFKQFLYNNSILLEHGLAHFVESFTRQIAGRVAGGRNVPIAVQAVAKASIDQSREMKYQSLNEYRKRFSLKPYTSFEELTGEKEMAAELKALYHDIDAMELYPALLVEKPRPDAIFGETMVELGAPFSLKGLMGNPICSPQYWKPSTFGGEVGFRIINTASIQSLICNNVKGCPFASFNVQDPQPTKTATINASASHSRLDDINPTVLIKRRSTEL
T2 sequence (Q63921 whole entry): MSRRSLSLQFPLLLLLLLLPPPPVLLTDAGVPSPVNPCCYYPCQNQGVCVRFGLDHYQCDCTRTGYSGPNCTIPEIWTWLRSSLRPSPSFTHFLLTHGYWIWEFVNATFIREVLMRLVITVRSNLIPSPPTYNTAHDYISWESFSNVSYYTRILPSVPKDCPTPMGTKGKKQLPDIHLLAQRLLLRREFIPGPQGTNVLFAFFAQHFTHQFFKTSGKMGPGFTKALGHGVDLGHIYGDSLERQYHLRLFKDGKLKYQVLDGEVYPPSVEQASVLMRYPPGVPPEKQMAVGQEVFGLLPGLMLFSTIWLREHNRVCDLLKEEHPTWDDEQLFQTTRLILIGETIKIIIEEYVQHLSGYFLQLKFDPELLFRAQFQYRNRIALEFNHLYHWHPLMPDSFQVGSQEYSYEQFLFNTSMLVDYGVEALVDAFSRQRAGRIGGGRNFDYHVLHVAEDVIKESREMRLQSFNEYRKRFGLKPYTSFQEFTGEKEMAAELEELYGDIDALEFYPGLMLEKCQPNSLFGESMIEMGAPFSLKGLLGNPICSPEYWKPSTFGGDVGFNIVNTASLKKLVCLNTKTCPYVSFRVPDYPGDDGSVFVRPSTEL
Description: Inhibition of prostaglandin G/H synthase in intact rat basophilic leukemia cells stimulated with the calcium ionophore A-23187

Rattus norvegicus [2] = assay: Inhibition of rat carrageenan induced foot-pad edema at a dose of 30 mg/kg on peroral administration; N=Inactive; format: functional, organism-based; design: dose 30 mg/kg
Rattus norvegicus [3] = assay: Inhibition of rat carrageenan induced foot-pad edema at a dose of 10 mg/kg on peroral administration; settings: po, read-out: Inhibition
Rattus norvegicus [4] = assay: 40% inhibition of induced edema in the rat mycobacterium foot-pad edema test; format: functional
Rattus norvegicus [5] = assay: Inhibition of rat carrageenan induced foot-pad edema at a dose of 30 mg/kg on peroral administration; settings: po, read-out: Inhibition
Rattus norvegicus [6] = assay: Inhibition of rat carrageenan induced foot-pad edema at a dose of 30 mg/kg on peroral administration; Inactive(N)= <25% inhibition at a dose of 30 mg/kg po; format: functional, organism-based
[7] = target: T3, Polyunsaturated fatty acid 5-lipoxygenase (Rattus norvegicus) (UniProt P12527); assay: Inhibitory activity at 10 uM against 5-lipoxygenase in intact rat basophilic leukemia cells stimulated with the calcium ionophore A-23187; format: cell-based; settings: RBL-1
T3 sequence (whole entry): T1 sequence (P12527 whole entry)

Rattus norvegicus [8] = assay: 40% inhibition of induced edema in the rat mycobacterium foot-pad edema test; Inactive(N)= <30% inhibition at a dose of 10 mg/kg po; format: functional, organism-based; design: dose 10 mg/kg
Rattus norvegicus [9] = assay: 40% inhibition of induced edema in the rat mycobacterium foot-pad edema test; N=Inactive; format: functional, organism-based

Structure (SMILES) | IC50 [1] [nM] | IC50 (Cyclooxygenase) [nM] | inhibition (Rattus norvegicus [2]) | inhibition in vivo at 10 mg/kg (Rattus norvegicus [3]) [%] | ID40 (Rattus norvegicus [4]) [mg/kg] | inhibition in vivo at 30 mg/kg (Rattus norvegicus [5]) [%] | further results
CC(C)(C)c1cc(/C=C2\SC(NO)=NC2=O)cc(C(C)(C)C)c1O | 3700 | 800 | inactive | – | – | – | –
CC(C)(C)c1cc(/C=C2\CCOC2=O)cc(C(C)(C)C)c1O | – | – | – | 17 | 3.7 | 28 | –
CC(C)(C)c1cc(/C=C2\OC(NC#N)=NC2=O)cc(C(C)(C)C)c1O | 2600 | 1100 | inactive | – | – | – | –
C/C(=C1/SC(=S)NC1=O)c1cc(C(C)(C)C)c(O)c(C(C)(C)C)c1 | 2300 | 4500 | – | – | – | – | inhibition (Rattus norvegicus [6]): inactive
CC(C)(C)c1cc(/C=C2\OC(N=C(N)N)=NC2=O)cc(C(C)(C)C)c1O.CS(=O)(=O)O | 1200 | 340 | – | 33 | 5.7 | 48 | –
CN1C(=O)NC(=O)/C1=C/c1cc(C(C)(C)C)c(O)c(C(C)(C)C)c1 | 780 | 4600 | – | – | – | – | inhibition (Rattus norvegicus [6]): inactive
CC(C)(C)c1cc(/C=C2\OC(=O)NC2=O)cc(C(C)(C)C)c1O | 2800 | 650 | – | 35 | 3.7 | 51 | –
CN(C)CCNC1=NC(=O)/C(=C/c2cc(C(C)(C)C)c(O)c(C(C)(C)C)c2)S1 | – | – | – | – | – | – | inhibition [7]: 79%
CN1C(=S)NC(=O)/C1=C/c1cc(C(C)(C)C)c(O)c(C(C)(C)C)c1 | 170 | 790 | inactive | – | – | – | –
CC(C)(C)c1cc(/C=C2\SC(N=C(N)N)=NC2=O)cc(C(C)(C)C)c1O | 910 | 83 | – | 34 | 2.2 | 40 | –
CN(O)C1=NC(=O)/C(=C/c2cc(C(C)(C)C)c(O)c(C(C)(C)C)c2)S1 [listing 1 of 2 here] | – | – | inactive | – | – | – | –
CC(C)(C)c1cc(/C=C2\SC(=O)NC2=O)cc(C(C)(C)C)c1O | – | 350 | – | 54 | 2 | 59 | –
CN(O)C1=NC(=O)/C(=C/c2cc(C(C)(C)C)c(O)c(C(C)(C)C)c2)S1.Cl | 1700 | 330 | – | – | 6.2 | – | –
O=C1NC(=O)/C(=C/c2cc(-c3ccccc3)c(O)c(-c3ccccc3)c2)S1 | 160 | 9600 | – | 11 | – | 41 | ID40 (Rattus norvegicus [8]): inactive
CC(C)(C)c1cc(/C=C2\SC(NCCCC(=O)O)=NC2=O)cc(C(C)(C)C)c1O | – | – | – | – | – | – | inhibition [7]: 53%
C/C(=C1/SC(N=C(N)N)=NC1=O)c1cc(C(C)(C)C)c(O)c(C(C)(C)C)c1 | 1600 | 1900 | inactive | – | – | – | –
CC(C)(C)c1cc(/C=C2\SC(=O)NC2=O)cc(C(C)(C)C)c1 | 3300 | 4600 | inactive | – | – | – | –
CSC1=NC(=O)/C(=C/c2cc(C(C)(C)C)c(O)c(C(C)(C)C)c2)S1 | 650 | 600 | – | 36 | – | 47 | ID40 (Rattus norvegicus [9]): inactive
C/C(=C1/SC(NC#N)=NC1=O)c1cc(C(C)(C)C)c(O)c(C(C)(C)C)c1 | 1200 | 5100 | inactive | – | – | – | –
CC(C)(C)c1cc(/C=C2\SC(=N)NC2=O)cc(C(C)(C)C)c1O.CS(=O)(=O)O [DARBUFELONE MESYLATE] | 770 | 390 | – | 52 | 0.6 | 61 | –
CC(C)(C)c1cc(/C=C2\SC(=S)NC2=O)cc(C(C)(C)C)c1O | 380 | 12 | – | 32 | – | 36 | –
CON1CC/C(=C\c2cc(C(C)(C)C)c(O)c(C(C)(C)C)c2)C1=O [E-5110] | – | – | – | – | 1.9 | – | –
CC(C)(C)c1cc(/C=C2\OC(=S)NC2=O)cc(C(C)(C)C)c1O | 840 | 1700 | – | 32 | 12.4 | 40 | –
CC(C)(C)c1cc(/C=C2\CC(=S)NC2=O)cc(C(C)(C)C)c1O | 1700 | 2400 | – | 19 | – | 39 | ID40 (Rattus norvegicus [8]): inactive
CN1C(NC#N)=NC(=O)/C1=C/c1cc(C(C)(C)C)c(O)c(C(C)(C)C)c1 | 700 | 3500 | inactive | – | – | – | –
CC(C)c1cc(/C=C2\SC(=O)NC2=O)cc(C(C)C)c1O | 220 | 820 | – | – | – | – | ID40 (Rattus norvegicus [9]): inactive
CN1C(NC(=N)N)=NC(=O)/C1=C/c1cc(C(C)(C)C)c(O)c(C(C)(C)C)c1 | 1300 | 2100 | inactive | – | – | – | –
CC(C)(C)c1cc(/C=C2\SC(NC#N)=NC2=O)cc(C(C)(C)C)c1O | 630 | 160 | – | 29 | – | 49 | ID40 (Rattus norvegicus [9]): inactive
CN(O)C1=NC(=O)/C(=C/c2cc(C(C)(C)C)c(O)c(C(C)(C)C)c2)S1 [listing 2 of 2 here] | 7300 | 10000 | – | – | – | – | –
